Results published in patent US20220062240A1, “METHODS OF TREATING CANCER USING A CLK INHIBITOR” (BioSplice Therapeutics, Inc., priority 2018, published 2022).
Where two headings read alike, the source gives them in different places.

Key:
[1] = test system: nuclear speckles in SW480 cells; experiment: Nuclear speckle staining (phospho-SC35); assay type: cell-based, human; settings: SW480, 6 hours, 0.3-10 μM
Procedure: […]. The cells were stained with a phospho-SC35 antibody (green) and a Hoechst 33342 nuclear stain (blue). Scale bar, 10 μm.
FIG. 9A is a set of representative immunofluorescence images (×100 magnification) of SW480 cells treated with indicated concentrations for 6 hours. The cells were stained with a phospho-SC35 antibody (green) and a Hoechst 33342 nuclear stain (blue). Scale bar, 10 μm.
[…]. After approximately 6 hr, cells were fixed and stained a phospho-SC35 antibody (Santa Cruz Biotechnology). Cells were then labelled with an Alexa-Fluor 488 secondary antibody (Thermo Fisher) containing DAPI (Thermo Fisher). Cells were imaged at 100× magnification.

[2] = test system: SRSF6 and SRSF5 phosphorylation in SW480 cells; experiment: SR phosphorylation immunoblot; assay type: cell-based, human; settings: SW480, 1 hour
Procedure: FIG. 6A is an immunoblot showing phosphorylated SRSF6 and SRSF5 in SW480 cells treated as indicated for 1 hour. Total SRSF5 and R-actin blots were used as loading controls. The blots are representative of two experiments.
First, it was determined that CLK1, CLK2, and CLK3 localized into the nucleus, while CLK4 was predominantly detected in the cytoplasm (FIG. 5). […]. Zhou et al., Chromosoma 122, 191-207, 2013).
(§1) For indicated experiments, cells were pelleted by centrifugation and washed with PBS and protein from the cell pellet was fractionated into cytoplasmic and nuclear fractions using a NE-PER™Nuclear and Cytoplasmic Extraction Reagents kit containing Halt™ protease and phosphatase inhibitors (Thermo Fisher). Protein concentrations of the samples were quantified using the Pierce Micro BCA protein assay kit (Thermo Fisher). […] Primary antibodies were incubated overnight at 4° C., with GAPDH, Lamin B1 or β-actin being used as loading controls (refer to Table 19 for primary antibodies and dilutions used).

[3] = test system: Wnt responsive TOPflash reporter in SW480 colon cancer cells; experiment: TOPflash β-catenin/TCF-responsive reporter assay; assay type: cell-based, human
Procedure: Human colorectal cancer cell line SW480, stably expressing the Wnt responsive TOPflash promoter linked to luciferase gene (TOPflash) was used along with SW480 stably expressing a control EF1a-Luciferase reporter gene (GenTarget #LVP434) as a counterscreen. […] Cells were plated at ˜10,000 cells/well and incubated for 40 hours. Luminescence was detected using Bright-Glo (Promega Corp.).

[4] = test system: SW480 cells; experiment: Cell viability assay in SW480 cells (Compound 12, CC-671, Harmine); assay type: cell-based; settings: Homo sapiens, SW480, 96 h, read-out: EC50 cell viability
Excerpt: The data is representative from three independent assays performed in quadruplicate.

[5] = test system: SW480 cells; experiment: Wnt pathway gene (qRT-PCR) and protein (immunoblot) expression; assay type: cell-based, human; settings: SW480, 24 hours, compared to DMSO
Procedure: Fold-change relative to DMSO is shown (n=3 biological replicates per group, Mean±SD, **P<0.01; ***P<0.001, student's two-tailed t-test).
(§2) FIG. 6D is an immunoblot showing Wnt pathway-related protein expression in SW480 cells treated as indicated for 24 hours. The proteins were separated into nuclear and cytoplasmic fractions. GAPDH and Lamin B1 represent cytoplasmic and nuclear protein loading controls, respectively. The blots are representative of two experiments.
as §2, with “6E” for “6D”, “48” for “24”
The fold-change relative to DMSO is shown (n=3 biological replicates per group, Mean±SD, *P<0.05; **P<0.01; ***P<0.001, student's two-tailed t-test).
FIG. 7C is an immunoblot showing protein expression of hits identified in FIG. 7A. SW480 cells were treated as indicated for 24 hours and proteins were separated into nuclear and cytoplasmic fractions. GAPDH and Lamin B1 represent the cytoplasmic and nuclear protein loading controls, respectively. The blots are representative of two experiments.
as §1
Total RNA was isolated using RNeasy Plus mini kit (Qiagen) or MagMAX Total RNA kit (Thermo Fisher) as per the manufacturers' protocol. cDNA was synthesized using the iScript cDNA Synthesis Kit (Bio-Rad), followed before performing qRT-PCR. Reactions were then run on a real-time PCR system (CFX384; Bio-Rad). Relative gene expression was determined by normalizing to GAPDH using the ΔΔCt method.

Compound | enlargement of nuclear speckles [1] | SR phosphorylation (SRSF6, SRSF5) [2] | EC50 ([3]; Homo sapiens) | EC50 [4] | gene expression of AXIN2, LEF1, MYC, TCF7, CTNNB1 and TCF7L2 [5] | EC50 [3]
COc1ccc2c(c1)[nH]c1c(C)nccc12 [Harmine] | not observed | not active | > 10 µM | > 10 µM | minimal effect | –
C[C@H]1[C@H]2N(C(=O)CN(C)N2C(=O)NCc2ccccc2)[C@@H](Cc2ccc(OP(=O)(O)O)cc2)C(=O)N1Cc1cccc2cccnc12 [PRI-724] | – | – | – | – | – | 1.06 µM
CNC(=O)c1ccc(Nc2nc(OC3CCCC3)c3c(-c4ccc5nc(C)oc5c4)c[nH]c3n2)c(OC)c1 [CC-671, reference compound] | only at higher doses of 10 μM and 3 μM | not as effective as Compound 12 | – | – | minimal effect | –
